This note sets out measurements from US12606558B2, “Condensed pyrazole derivatives as inhibitors of SARM1” (Disarm Therapeutics, Inc., priority 2020, dated 2026).

The IC50 is the midpoint of a concentration-inhibition curve.

The test addresses T1, SARM1 (Homo sapiens, UniProt Q6SZW1).
T1 construct: made in house; host or cells: NRK1-HEK293T cells, transient transfection; clarified lysate used without purification
T1 sequence (Q6SZW1 with tags, fused parts or gaps): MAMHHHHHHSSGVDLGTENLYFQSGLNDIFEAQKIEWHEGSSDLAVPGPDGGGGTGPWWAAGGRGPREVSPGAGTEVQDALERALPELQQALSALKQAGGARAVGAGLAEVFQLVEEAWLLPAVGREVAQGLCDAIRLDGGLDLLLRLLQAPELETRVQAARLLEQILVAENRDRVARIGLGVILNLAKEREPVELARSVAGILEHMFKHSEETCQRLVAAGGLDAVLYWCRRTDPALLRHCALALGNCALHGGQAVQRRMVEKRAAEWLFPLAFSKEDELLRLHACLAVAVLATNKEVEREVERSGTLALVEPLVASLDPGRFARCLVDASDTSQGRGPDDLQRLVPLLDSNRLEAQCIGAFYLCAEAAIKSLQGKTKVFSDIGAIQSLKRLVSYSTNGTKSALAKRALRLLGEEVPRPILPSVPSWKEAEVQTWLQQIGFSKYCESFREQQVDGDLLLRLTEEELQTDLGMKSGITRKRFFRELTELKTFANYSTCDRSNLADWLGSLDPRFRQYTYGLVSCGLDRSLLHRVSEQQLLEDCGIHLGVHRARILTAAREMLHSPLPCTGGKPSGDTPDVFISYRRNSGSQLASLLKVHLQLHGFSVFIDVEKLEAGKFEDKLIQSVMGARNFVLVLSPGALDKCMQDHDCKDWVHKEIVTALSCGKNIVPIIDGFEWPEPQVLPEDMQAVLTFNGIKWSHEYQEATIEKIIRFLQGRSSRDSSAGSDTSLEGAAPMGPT
The test is described as follows: ARM-SAM-TIR SARM1 IC50 assay (NADase activity, NAD+ cleavage). In kind it is biochemical. The settings on record: ARM-SAM-TIR lysate 5 μg/mL, 2 h pre-incubation, 5 μM NAD+, 2 hr room temperature, RapidFire mass spectrometry of NAD+ and ADPR. Here is the method:
This Example describes an assay of ARM-SAM-TIR NADase activity and use of this assay to measure the efficacy of compounds of Formula I/II to block SARM1 mediated NAD+ cleavage. This assay was optimized in such a way as to characterize the efficacy of the compounds in Formula I/II to inhibit SARM1 activity and to calculate an IC50 value for each compound. This assay makes use of full length SARM1, which encompasses the ARM, SAM and TIR domains.
NRK1-HEK293T cells were seeded onto 150 cm^2 plates at 20×10^6 cells per plate. The next day, the cells were transfected with 15 μg ARM-SAM-TIR expression plasmid, SEQ ID NO: 1.
The cultures were supplemented with 1 mM NR at time of transfection to minimize toxicity from ARM-SAM-TIR overexpression. Forty-eight hours after transfection, cells were harvested, pelleted by centrifugation at 1,000 rpm (Sorvall ST 16R centrifuge, Thermo Fisher), and washed once with cold PBS (0.01 M phosphate buffered saline NaCl 0.138 M; KCl 0.0027 M; pH 7.4). The cells were resuspended in PBS with protease inhibitors (cOmplete™ protease inhibitor cocktail, Roche product #11873580001) and cell lysates were prepared by sonication (Branson Sonifer 450, output=3, 20 episodes of stroke). The lysates were centrifuged (12,000×g for 10 min at 4° C.) to remove cell debris and the supernatants (containing ARM-SAM-TIR protein) were stored at −80° C. for later use in the in vitro ARM-SAM-TIR NADase assay (see below). Protein concentration was determined by the Bicinchoninic (BCA) method and used to normalize lysate concentrations.
The enzymatic assay was performed in a 384-well polypropylene plate in Dulbecco's PBS buffer in a final assay volume of 20 μL. ARM-SAM-TIR lysate with a final concentration of 5 μg/mL was pre-incubated with the respective compound at 1% DMSO final assay concentration over 2 h at room temperature. The reaction was initiated by addition of 5 μM final assay concentration of NAD+ as substrate. After a 2 hr room temperature incubation, the reaction was terminated with 40 μL of stop solution of 7.5% trichloroactetic acid in acetonitrile. The NAD+ and ADPR concentrations were analyzed by a RapidFire High Throughput Mass Spectrometry System (Agilent Technologies, Santa Clara, Calif.) using an API4000 triple quadrupole mass spectrometer (AB Sciex Framingham, Mass.).
Consider `O=C(CCc1ccc(Cl)nc1)N1CCCc2c(-c3ccncc3)n[nH]c21` [Example 1], for which the IC50 was in the range of 100 to 1000 nM. The result for `O=C(CCc1ccc(Cl)cc1)N1CCCc2c(-c3ccncc3)n[nH]c21` [Example 2] reads less than 100 nM; that for `O=C(CCc1ccc(Cl)cc1)N1CCOc2c(-c3ccncc3)n[nH]c21` [Example 3], less than 100 nM.

As for `O=C(NCc1ccc(Cl)nc1)N1CCCc2c(-c3ccncc3)n[nH]c21` [Example 4], the IC50 was greater than 10000 nM. Take `O=C(NCc1ccc(Cl)cc1)N1CCCc2c(-c3ccncc3)n[nH]c21` [Example 5]: the IC50 is 1010 to 5000 nM. `O=C(CCc1ccc(Cl)cc1)N1CCOc2c(-c3ccnnc3)n[nH]c21` [Example 6] gave an IC50 of less than 100 nM. As for `O=C(CCc1ccc(Cl)cc1)N1CCCc2c(-c3ccnnc3)n[nH]c21` [Example 7], the concentration for half-maximal inhibition (IC50) was less than 100 nM. `N#Cc1ccc(CCC(=O)N2CCCc3c(-c4ccncc4)n[nH]c32)cc1` [Example 8] gave an IC50 of 100 to 1000 nM. As to `N#Cc1ccc(CCC(=O)N2CCCc3c(-c4ccnnc4)n[nH]c32)cc1` [Example 9], the IC50 was less than 100 nM. Molecule `O=C(CCc1ccc(Cl)nc1)N1CCCc2c(-c3ccnnc3)n[nH]c21` [Example 10] showed a half-inhibitory concentration (IC50) of less than 100 nM. The result for `O=C(CCc1cnc(Cl)c(F)c1)N1CCCc2c(-c3ccncc3)n[nH]c21` [Example 11] reads less than 100 nM.

In turn, `O=C(CCc1cnc(Cl)c(F)c1)N1CCCc2c(-c3ccnnc3)n[nH]c21` [Example 12] had an IC50 of less than 100 nM. Turning to `O=C(CCc1ccc(Cl)c(F)c1)N1CCCc2c(-c3ccncc3)n[nH]c21` [Example 13], the IC50 is less than 100 nM.

As for `N#Cc1ccc(CCC(=O)N2CCCc3c(-c4ccncc4)n[nH]c32)cc1F` [Example 14], the IC50 is less than 100 nM. For the molecule `O=C(CCc1ccc(Cl)c(F)c1)N1CCCc2c(-c3ccnnc3)n[nH]c21` [Example 15], the IC50 was less than 100 nM. As to `N#Cc1ccc(CCC(=O)N2CCCc3c(-c4ccnnc4)n[nH]c32)cc1F` [Example 16], the IC50 was less than 100 nM. The result for `O=C1CCN(C(=O)CCc2ccc(Cl)cc2)c2[nH]nc(-c3ccncc3)c21` [Example 17] reads less than 100 nM; that for `O=C1CCN(C(=O)CCc2ccc(Cl)nc2)c2[nH]nc(-c3ccncc3)c21` [Example 18], 100 to 1000 nM.

As for `O=C(CCc1ccc(Cl)cc1)N1CCC(O)c2c(-c3ccncc3)n[nH]c21` (centres unmarked) [Example 19], the IC50 was less than 100 nM.

Molecule `O=C(CCc1ccc(Cl)nc1)N1CCC(O)c2c(-c3ccncc3)n[nH]c21` (centres unmarked) [Example 20] displayed an IC50 of 100 to 1000 nM.
